Patent US8343990B2, “Substituted cyclopropyl compounds, compositions containing such compounds and methods of treatment” (Merck Sharp & Dohme Corp., priority 2008, dated 2013)

Target: T1, GPR119 receptor (UniProt Q8TDV5, S309L, species not given)
T1 sequence (Q8TDV5 1-335 S309L): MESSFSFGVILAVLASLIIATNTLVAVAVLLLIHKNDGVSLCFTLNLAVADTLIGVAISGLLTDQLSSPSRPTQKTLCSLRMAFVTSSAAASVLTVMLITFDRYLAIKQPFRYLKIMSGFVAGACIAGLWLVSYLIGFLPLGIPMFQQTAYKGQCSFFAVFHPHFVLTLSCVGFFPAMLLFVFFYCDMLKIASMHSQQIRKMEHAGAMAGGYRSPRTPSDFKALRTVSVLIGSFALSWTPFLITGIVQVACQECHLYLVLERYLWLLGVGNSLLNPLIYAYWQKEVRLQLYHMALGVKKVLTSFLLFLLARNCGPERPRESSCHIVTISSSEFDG
Assay: GPR119 signaling, cyclic AMP (cAMP) homogenous time resolved fluorescence (HTRF) assay
Format: cell-based
Details: CHO cells with Gα15 and murine GPR119, or HEK293 Flp-In cells with human GPR119 S309L; table does not say which; read-out: Activity: inflection points, denoted as EC50 values (agonist activation of GPR119, cAMP)
Procedure, shortened: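 Agonist-induced cAMP measured in CHO cells expressing Gα15 plus murine GPR119, or HEK293 Flp-In cells expressing human S309L variant. Suspended cells exposed to compound titration 60 min at room temperature, lysed, HTRF read after 60 min; EC50 and efficacy versus internal agonist from 4-parameter fit.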

Row | EC50 [nM] | SMILES
1 | 10 to 50 | Cc1cc(OCC[C@@H]2C[C@H]2C2CCN(c3ncc(Cl)cn3)CC2)nc(C#N)n1 (racemic) [Ex 99, rac-trans-4-{2-{2-[1-(5-chloropyrimidin-2-yl)piperidin-4-yl]cyclopropyl}ethoxy)-6-methylpyrimidine-2-carbonitrile]
2 | 50 to 200 | Clc1cnc(N2CCC(C3CC3CCOc3ccncn3)CC2)nc1 (racemic) [Ex 49, Rac-cis-5-chloro-2-(4-{2-[2-(pyrimidin-4-yloxy)ethyl]cyclopropyl}piperidin-l-yl)pyrimidine]
3 | 10 to 50 | Clc1cnc(N2CCC(C3CC3CCOc3ccc(-n4ncnn4)cc3)CC2)nc1 (racemic) [Ex 31, rac cis-5-chloro-2-[4-(2-{2-[4-(2H-tetrazol-2-yl)phenoxy]ethyl}cyclopropyl)piperidin-1-yl]pyrimidine]
4 | 10 to 50 | CS(=O)(=O)c1ccc(OC[C@H]2C[C@@H]2CC2CCN(c3ncc(Cl)cn3)CC2)cc1 [Ex 103, 5-chloro-2-{4-[((1S,2S)-2-{[4-(methylsulfonyl)phenoxy]methyl}cyclopropyl)methyl]piperidin-1-yl}pyrimidine]
5 | < 10 | Cc1nnc(-c2ccc(OCCC3CC3C3CCN(c4ncc(F)cn4)CC3)cc2F)o1 (single isomer, unassigned) [Ex 83eS, cis-5-fluoro-2-[4-(2-{2-[3-fluoro-4-(5-methyl-1,3,4-oxadiazol-2-yl)phenoxy]ethyl}cyclopropyl)piperidin-1-yl]pyrimidine]
6 | > 200 | Clc1cnc(N2CCC(C3CC3CCOc3ccc(-c4cnn[nH]4)cc3)CC2)nc1 (racemic) [Ex 29, rac cis-5-chloro-2-[4-(2-{2-[4-(1H-1,2,3-triazol-5-yl)phenoxy]ethyl}cyclopropyl)piperidin-1-yl]pyrimidine]
7 | 50 to 200 | N#Cc1cncc(OCC[C@@H]2C[C@@H]2C2CCN(c3ncc(Cl)cn3)CC2)c1 (racemic) [Ex 50, Rac-cis-5-(2-{2-[1-(5-chloropyrimidin-2-yl)piperidin-4-yl]cyclopropyl}ethoxy)nicotinonitrile]
8 | 50 to 200 | Clc1cnc(N2CCC(C3CC3CCOc3ccncc3)CC2)nc1 (racemic) [Ex 98, rac-trans-5-chloro-2-(4-{2-[2-(pyridin-4-yloxy)ethyl]cyclopropyl}piperidin-1-yl)pyrimidine]

Second part, the molecule before the results:

Row | SMILES | EC50 [nM]
9 | Clc1cnc(N2CCC([C@@H]3C[C@@H]3CCOc3ccncc3)CC2)nc1 (racemic) [Ex 55, Rac-cis-5-chloro-2-(4-{2-[2-(pyridin-4-yloxy)ethyl]cyclopropyl}piperidin-1-yl)pyrimidine] | 10 to 50
10 | N#Cc1ccc(OCC[C@@H]2C[C@@H]2C2CCN(c3ncc(Cl)cn3)CC2)cn1 (racemic) [Ex 54, Rac-cis-5-(2-{2-[1-(5-chloropyrimidin-2-yl)piperidin-4-yl]cyclopropyl}ethoxy)pyridine-2-carbonitrile] | 50 to 200
11 | Cc1nc(C#N)cc(OC[C@@H]2C[C@H]2CC2CCN(c3ncc(Cl)cn3)CC2)n1 (racemic) [Ex 113, rac-trans-6-[(2-{[1-(5-chloropyrimidin-2-yl)piperidin-4-yl]methyl}cyclopropyl)methoxy]-2-methylpyrimidine-4-carbonitrile] | 50 to 200
12 | O=C(NC1CC1)c1ccc(OC[C@@H]2C[C@@H]2CC2CCN(c3ncc(Cl)cn3)CC2)cc1F (racemic) [Ex 117, rac-cis 4-[(2-{[1-(5-chloropyrimidin-2-yl)piperidin-4-yl]methyl}cyclopropyl)methoxy]-N-cyclopropyl-2-fluorobenzamide] | 10 to 50
13 | Clc1cnc(N2CCC(C3CC3CCOc3cccc(-c4nnco4)c3)CC2)nc1 (racemic) [Ex 10, rac cis-5-chloro-2-[4-(2-{2-[3-(1,3,4-oxadiazol-2-yl)phenoxy]ethyl}cyclopropyl)piperidin-1-yl]pyrimidine] | > 200
14 | CC(=O)c1ccc(OCC[C@@H]2C[C@@H]2C2CCN(c3ncc(Cl)cn3)CC2)cc1 (racemic) [Ex 35, Rac-cis-1-[4-(2-{2 [1-(5-chloropyrimidin-2-yl)piperidin-4-yl]cyclopropyl}ethoxy)phenyl]ethanone] | 50 to 200
15 | C[S+]([O-])c1ccc(OCCC2CC2C2CCN(c3ncc(Cl)cn3)CC2)cc1 (single isomer, unassigned) [Ex 33, Chiral-cis-5-chloro-2-[4-(2-{2-[4-(methylsulfinyl)phenoxy]ethyl}cyclopropyl)piperidin-1-yl]pyrimidine] | < 10
16 | N#Cc1ccc(OC[C@@H]2C[C@H]2CC2CCN(c3ncc(Cl)cn3)CC2)cc1F [Ex 105, 4-[((1R,2R)-2-{[1-(5-chloropyrimidin-2-yl)piperidin-4-yl]methyl}cyclopropyl)methoxy]-2-fluorobenzonitrile] | > 200
17 | Cc1cnc(N2CCC(C3CC3CCOc3ccc(-n4ccnn4)cc3)CC2)nc1 (racemic) [Ex 27c, rac cis-5-methyl-2-[4-(2-{2-[4-(1H-1,2,3-triazol-1-yl)phenoxy]ethyl}cyclopropyl)piperidin-1-yl]pyrimidine] | 10 to 50
18 | Clc1cnc(N2CCC([C@@H]3C[C@@H]3CCOc3ccc(-n4ccnn4)cc3)CC2)nc1 (single isomer, unassigned) [Ex 83aS, cis-5-chloro-2-[4-(2-{2-[4-(1H-1,2,3-triazol-1-yl)phenoxy]ethyl}cyclopropyl)piperidin-1-yl]pyrimidine] | < 10
